Read-outs that look alike come from different tables or passages of the source. Each block holds one molecule with its values, some of them ahead of it.
How the values were obtained:
[1] = test system: MRC5 cells; experiment: Cell viability assay in MRC5 cells (MTT)
[2] = target: T1, PDGFRβ (Homo sapiens (Human), UniProt P09619); experiment: Duration of action (washout) against PDGF-BB induced phosphorylation of PDGFRβ in human fetal lung fibroblast cells; assay type: cell-based; conditions: MRC-5 cells; for % phos: percentage phosphorylation after wash-out relative to maximal phosphorylation (100%): rhuPDGF-BB, experiments in Groups 1-4
[3] = Pharmacokinetic measurements in mice (intravenous and intra-nasal dosing); assay type: in vivo; conditions: mouse; for concentration at 6 h / concentration at 0.1 h / concentration at 1.5 h / concentration at 24 h / Kp at 6 h / Kp at 0.1 h / Kp at 1.5 h: male, C57BL/6J; for concentration at 6 h / concentration at 0.1 h / concentration at 1.5 h / concentration at 24 h: lung, read-out: lung concentration (nM) at time (h); for concentration at 6 h / concentration at 0.1 h / concentration at 1.5 h / concentration at 24 h / BAV (%): mean; for Kp at 6 h / Kp at 0.1 h / Kp at 1.5 h: lung/plasma
[4] = Pharmacokinetic measurements in rats (intravenous and intra-tracheal dosing); assay type: in vivo; conditions: rat; for concentration at 0.1 h / concentration at 1.5 h / concentration at 24 h / concentration at 6 h: lung, read-out: lung concentration (nM) at time (h); for Kp at 0.1 h / Kp at 1.5 h / Kp at 24 h / Kp at 6 h: lung/plasma
[5] = target: T1, PDGFRβ; experiment: PDGF-BB induced phosphorylation of PDGFRβ in fibroblasts (MRC5 cells, HTRF); assay type: cell-based; conditions: MRC5 cells; n = 1 unless otherwise indicated; read-out: PDGFBB-induced PDGFRβ phosphorylation in MRC5 cells (IC50)
[6] = target: T1, PDGFRβ; conditions: read-out: Ki PDGFRβ; mean, n = 2 unless otherwise indicated
[7] = PAMPA permeability assay; assay type: in vitro ADME; conditions: PAMPA; for recovery at 5 hr, 10 μM: pH 7, PAMPA, donor and acceptor compartments; for Papp at 5 h, 10 μM: pH 7, pH 7, 10 μM
[8] = male, CD, iv, i.v. dosing, 0.1 h
[9] = male, CD, iv, i.v. dosing, 1.5 h
[10] = male, CD, iv, i.v. dosing, 24 h
[11] = male, CD, other: intra-tracheal, i.t. dosing, 0.1 h
[12] = male, CD, other: intra-tracheal, i.t. dosing, 1.5 h
[13] = male, CD, other: intra-tracheal, i.t. dosing, 24 h
[14] = male, CD, iv, i.v. dosing, 0.1 h, read-out: lung/plasma ratio at time(h)
[15] = male, CD, iv, i.v. dosing, 1.5 h, read-out: lung/plasma ratio at time(h)
[16] = male, CD, other: intra-tracheal, i.t. dosing, 0.1 h, read-out: lung/plasma conc ratio at time(h)
[17] = male, CD, other: intra-tracheal, i.t. dosing, 1.5 h, read-out: lung/plasma conc ratio at time(h)

T1 sequence (P09619 33-1106): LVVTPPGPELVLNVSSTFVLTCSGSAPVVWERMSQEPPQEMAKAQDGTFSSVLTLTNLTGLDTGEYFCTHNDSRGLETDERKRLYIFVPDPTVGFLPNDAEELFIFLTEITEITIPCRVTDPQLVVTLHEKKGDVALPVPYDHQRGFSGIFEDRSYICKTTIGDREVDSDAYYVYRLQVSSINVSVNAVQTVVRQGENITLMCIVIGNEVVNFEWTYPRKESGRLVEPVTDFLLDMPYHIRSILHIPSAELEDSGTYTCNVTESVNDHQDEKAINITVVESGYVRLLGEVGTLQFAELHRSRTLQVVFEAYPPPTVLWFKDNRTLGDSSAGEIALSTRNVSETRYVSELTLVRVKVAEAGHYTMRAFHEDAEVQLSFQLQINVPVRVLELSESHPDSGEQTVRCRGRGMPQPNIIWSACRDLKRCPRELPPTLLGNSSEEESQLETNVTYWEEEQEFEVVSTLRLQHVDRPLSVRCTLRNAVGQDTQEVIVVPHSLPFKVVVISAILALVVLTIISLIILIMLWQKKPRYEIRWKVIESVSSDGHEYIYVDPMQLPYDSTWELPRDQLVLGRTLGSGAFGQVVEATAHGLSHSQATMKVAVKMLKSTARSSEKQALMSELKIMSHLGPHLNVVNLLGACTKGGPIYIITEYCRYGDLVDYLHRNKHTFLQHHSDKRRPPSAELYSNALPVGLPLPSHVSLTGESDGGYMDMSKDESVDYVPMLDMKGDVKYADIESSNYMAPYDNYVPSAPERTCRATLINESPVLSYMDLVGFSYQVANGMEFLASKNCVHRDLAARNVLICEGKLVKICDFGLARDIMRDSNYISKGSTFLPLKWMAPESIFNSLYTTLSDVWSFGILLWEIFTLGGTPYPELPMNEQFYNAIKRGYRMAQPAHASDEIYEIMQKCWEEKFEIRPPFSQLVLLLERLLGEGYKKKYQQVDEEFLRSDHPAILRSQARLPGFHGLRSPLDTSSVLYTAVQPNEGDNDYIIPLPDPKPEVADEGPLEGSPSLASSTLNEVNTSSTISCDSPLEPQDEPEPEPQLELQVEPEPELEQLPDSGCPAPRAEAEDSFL

- % phos: percentage phosphorylation after wash-out relative to maximal phosphorylation (100%) [2]: 31.6%
- Duration of action as inhibitors of PDGFRβ compared with nintedanib ([2]; wash-out): longer duration of action
- concentration at 6 h ([3]; iv, 0.2 mg/kg, i.v. dosing, 6 h): 46 nM
- concentration at 0.1 h ([3]; iv, i.v. dosing, 0.1 h): 580 nM
- concentration at 1.5 h ([3]; iv, i.v. dosing, 1.5 h): 168 nM
- concentration at 24 h ([3]; iv, i.v. dosing, 24 h): 13 nM
- concentration at 0.1 h ([3]; other: intra-nasal, i.n. dosing, 0.1 h): 1490 nM
- concentration at 1.5 h ([3]; other: intra-nasal, i.n. dosing, 1.5 h): 986 nM
- concentration at 6 h ([3]; other: intra-nasal, i.n. dosing, 6 h): 258 nM
- concentration at 24 h ([3]; other: intra-nasal, i.n. dosing, 24 h): 84 nM
- Kp at 6 h ([3]; iv, 0.2 mg/kg, i.v. dosing, 6 h, read-out: lung/plasma ratio at time(h)): 65
- Kp at 0.1 h ([3]; iv, i.v. dosing, 0.1 h, read-out: lung/plasma ratio at time(h)): 11
- Kp at 1.5 h ([3]; iv, i.v. dosing, 1.5 h, read-out: lung/plasma ratio at time(h)): 40
- Kp at 0.1 h ([3]; other: intra-nasal, i.n. dosing, 0.1 h, read-out: lung/plasma conc ratio at time(h)): 79
- Kp at 1.5 h ([3]; other: intra-nasal, i.n. dosing, 1.5 h, read-out: lung/plasma conc ratio at time(h)): 398
- Kp at 6 h ([3]; other: intra-nasal, i.n. dosing, 6 h, read-out: lung/plasma conc ratio at time(h)): 607
- Lung conc i.n./i.v. Ratio at time (h) ([3]; 0.1 h): 2.6
- Lung conc i.n./i.v. Ratio at time (h) ([3]; 1.5 h): 5.9
- Lung conc i.n./i.v. Ratio at time (h) ([3]; 6 h): 5.6
- Lung conc i.n./i.v. Ratio at time (h) ([3]; 24 h): 6.5
- BAV (%) ([3]; i.n. dosing (i.n. dose 1 nintedanib, 0.2 examples)): ~50%
- BAL % administered dose at time (h) ([3]; i.n. dosing, 0.1 h): 1%
- BAL % administered dose at time (h) ([3]; i.n. dosing, 1.5 h): 0.3%
- BAL % administered dose at time (h) ([3]; i.n. dosing, 6 h): 0.1%
- BAL % administered dose at time (h) ([3]; i.n. dosing, 24 h): 0.04%
- BAL % administered dose at time (h) ([3]; i.v. dosing, 0.1 h): 0.1%
- BAL % administered dose at time (h) ([3]; i.v. dosing, 1.5 h): 0.01%
- BAV (%) ([3]; oral dosing (oral dose 60 mg/kg nintedanib, 10 mg/kg examples)): <5%
- concentration at 0.1 h [4, 8]: 2990 nM
- concentration at 1.5 h [4, 9]: 1880 nM
- concentration at 24 h [4, 10]: 173 nM
- concentration at 0.1 h [4, 11]: 30400 nM
- concentration at 1.5 h [4, 12]: 11900 nM
- concentration at 24 h [4, 13]: 4720 nM
- Kp at 0.1 h [4, 14]: 103
- Kp at 1.5 h [4, 15]: 315
- Kp at 24 h ([4]; male, CD, iv, i.v. dosing, 24 h, read-out: lung/plasma ratio at time(h)): 198
- Kp at 0.1 h [4, 16]: 288
- Kp at 1.5 h [4, 17]: 2890
- Kp at 24 h ([4]; male, CD, other: intra-tracheal, i.t. dosing, 24 h, read-out: lung/plasma conc ratio at time(h)): 3280
- MRT ([4]; male, CD, plasma, iv, i.v. dosing): 7.9 h
- clearance ([4]; male, CD, plasma, iv, i.v. dosing (i.v. dose 0.1-0.5 per compound)): 132 mL/min/kg
- Vd ([4]; male, CD, plasma, iv, i.v. dosing, read-out: Vss): 63 L/kg
- half-life ([4]; male, CD, plasma, iv, i.v. dosing, read-out: t½ (converted)): 8.1 h
- Lung conc i.t./i.v. Ratio at time (h) ([4]; 0.1 h): 10.2
- Lung conc i.t./i.v. Ratio at time (h) ([4]; 1.5 h): 6.3
- Lung conc i.t./i.v. Ratio at time (h) ([4]; 24 h): 27.3
- i.t. BAV (%) ([4]; i.t. dosing (i.t. dose 0.1-0.5 per compound)): 115%
- BAL % administered dose at time (h) ([4]; i.t. dosing, 0.1 h): 6%
- BAL % administered dose at time (h) ([4]; i.t. dosing, 1.5 h): 3%
- BAL % administered dose at time (h) ([4]; i.t. dosing, 24 h): 0.1%
- BAL % administered dose at time (h) ([4]; i.v. dosing, 0.1 h): 0.06%
- BAL % administered dose at time (h) ([4]; i.v. dosing, 1.5 h): 0.03%
- BAL % administered dose at time (h) ([4]; i.v. dosing, 24 h): BQL
- Oral BAV (%) ([4]; oral dose 3 mg/kg): <1%
- IC50 [5]: 6.95 nM
- Ki [6]: 8.31 nM
- recovery at 5 hr, 10 μM [7]: 42%
- Papp at 5 h, 10 μM [7]: 0.00649 ×10⁻⁶ cm/s
Compound: COC(=O)c1cc2c(cc1C)/C(=C(/Nc1ccc(C(=O)NOCCN3CCN(C)CC3)cc1)c1ccccc1)C(=O)N2 [Example 6, (Z)-Methyl 5-methyl-3-(((4-((2-(4-methylpiperazin-1-yl)ethoxy)carbamoyl)phenyl)amino)(phenyl)methylene)-2-oxoindoline-6-carboxylate]
- Cell viability at 100 nM (%) [1]: 98.1%
- Cell viability at 300 nM (%) [1]: 88.5%
- Cell viability at 1000 nM (%) [1]: 77%

- % phos: percentage phosphorylation after wash-out relative to maximal phosphorylation (100%) [2]: 84.7%
- concentration at 6 h ([4]; male, CD, iv, 0.1 mg/kg, i.v. dosing, 6 h): 69 nM
- concentration at 0.1 h [4, 8]: 329 nM
- concentration at 1.5 h [4, 9]: 172 nM
- concentration at 24 h [4, 10]: 30 nM
- concentration at 0.1 h [4, 11]: 2100 nM
- concentration at 1.5 h [4, 12]: 881 nM
- concentration at 6 h ([4]; male, CD, other: intra-tracheal, i.t. dosing, 6 h): 1000 nM
- concentration at 24 h [4, 13]: 519 nM
- Kp at 6 h ([4]; male, CD, iv, 0.1 mg/kg, i.v. dosing, 6 h, read-out: lung/plasma ratio at time(h)): 10
- Kp at 0.1 h [4, 14]: 17
- Kp at 1.5 h [4, 15]: 15
- Kp at 0.1 h [4, 16]: 233
- Kp at 1.5 h [4, 17]: 114
- Kp at 6 h ([4]; male, CD, other: intra-tracheal, i.t. dosing, 6 h, read-out: lung/plasma conc ratio at time(h)): 114
- Lung conc i.t./i.v. Ratio at time (h) ([4]; 0.1 h): 6
- Lung conc i.t./i.v. Ratio at time (h) ([4]; 1.5 h): 5
- Lung conc i.t./i.v. Ratio at time (h) ([4]; 6 h): 15
- Lung conc i.t./i.v. Ratio at time (h) ([4]; 24 h): 17
- BAL % administered dose at time (h) ([4]; i.t. dosing, 0.1 h): 5.3%
- BAL % administered dose at time (h) ([4]; i.t. dosing, 1.5 h): 0.2%
- BAL % administered dose at time (h) ([4]; i.t. dosing, 6 h): 0.3%
- BAL % administered dose at time (h) ([4]; i.t. dosing, 24 h): 0.1%
- BAL % administered dose at time (h) ([4]; i.v. dosing, 0.1 h): BLQ
- BAL % administered dose at time (h) ([4]; i.v. dosing, 1.5 h): BLQ
- BAL % administered dose at time (h) ([4]; i.v. dosing, 6 h): BLQ
- BAL % administered dose at time (h) ([4]; i.v. dosing, 24 h): BLQ
- IC50 [5]: 10.4 nM
- Ki [6]: 6.6 nM
- recovery at 5 hr, 10 μM [7]: 58.1%
- Papp at 5 h, 10 μM [7]: 0.0245 ×10⁻⁶ cm/s
Compound: COC(=O)c1cc2c(cc1C)/C(=C(/Nc1ccc(C(=O)NOCCN3CCN(CCO)CC3)cc1)c1ccccc1)C(=O)N2 [Example 7, (Z)-Methyl 3-(((4-((2-(4-(2-hydroxyethyl)piperazin-1-yl)ethoxy)carbamoyl)phenyl)amino)(phenyl)methylene)-5-methyl-2-oxoindoline-6-carboxylate]
- Cell viability at 100 nM (%) [1]: 90.7%
- Cell viability at 300 nM (%) [1]: 98%
- Cell viability at 1000 nM (%) [1]: 86.8%
